What was measured:
[1] = target: T1, Muscarinic acetylcholine receptor M5 (Homo sapiens, UniProt P08912); type: cell membranes, CHO-K1, Membrane; settings: cho-k1; note: in other assays of this panel Not Active means under 50% inhibition at 10 µM
T1 sequence (P08912 whole entry): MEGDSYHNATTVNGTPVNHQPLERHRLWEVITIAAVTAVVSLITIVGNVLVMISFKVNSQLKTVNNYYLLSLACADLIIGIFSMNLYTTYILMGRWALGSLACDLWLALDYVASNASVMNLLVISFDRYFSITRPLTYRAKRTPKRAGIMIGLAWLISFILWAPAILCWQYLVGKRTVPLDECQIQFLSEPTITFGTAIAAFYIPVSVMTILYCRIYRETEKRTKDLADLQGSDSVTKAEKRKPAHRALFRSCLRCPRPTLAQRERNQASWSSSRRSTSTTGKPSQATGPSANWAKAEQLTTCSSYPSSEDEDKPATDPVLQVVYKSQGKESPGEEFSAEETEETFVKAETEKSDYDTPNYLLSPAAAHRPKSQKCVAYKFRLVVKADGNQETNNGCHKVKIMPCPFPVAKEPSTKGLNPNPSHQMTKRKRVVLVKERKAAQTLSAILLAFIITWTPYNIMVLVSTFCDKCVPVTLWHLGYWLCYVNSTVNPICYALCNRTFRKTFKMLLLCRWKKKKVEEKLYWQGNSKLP

[2] = target: T2, 5-hydroxytryptamine receptor 2C (Homo sapiens, UniProt P28335); test: DRUGMATRIX: Serotonin (5-Hydroxytryptamine) 5-HT2C radioligand binding (ligand: [3H] Mesulergine); type: cell membranes, CHO-K1, Membrane; settings: Not Active = under 50% inhibition at 10 µM
T2 sequence (P28335 whole entry): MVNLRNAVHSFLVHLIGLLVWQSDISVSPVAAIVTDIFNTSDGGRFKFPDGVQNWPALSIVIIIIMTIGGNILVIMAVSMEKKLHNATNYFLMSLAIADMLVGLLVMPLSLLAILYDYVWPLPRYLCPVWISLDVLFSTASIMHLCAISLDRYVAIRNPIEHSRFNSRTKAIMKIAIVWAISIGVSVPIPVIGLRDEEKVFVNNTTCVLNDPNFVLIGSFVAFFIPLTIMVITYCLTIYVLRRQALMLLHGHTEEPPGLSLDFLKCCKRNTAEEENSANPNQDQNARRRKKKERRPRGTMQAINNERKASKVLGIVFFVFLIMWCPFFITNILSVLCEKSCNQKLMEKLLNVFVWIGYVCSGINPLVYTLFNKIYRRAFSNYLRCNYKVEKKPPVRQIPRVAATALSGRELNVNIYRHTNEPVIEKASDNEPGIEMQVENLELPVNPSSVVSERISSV

[3] = target: T3, Alpha-2C adrenergic receptor (Homo sapiens, UniProt P18825); test: DRUGMATRIX: Adrenergic Alpha-2C radioligand binding (ligand: [3H] MK-912); type: cell membranes, Sf9, Membrane; settings: sf9
T3 sequence (P18825 whole entry): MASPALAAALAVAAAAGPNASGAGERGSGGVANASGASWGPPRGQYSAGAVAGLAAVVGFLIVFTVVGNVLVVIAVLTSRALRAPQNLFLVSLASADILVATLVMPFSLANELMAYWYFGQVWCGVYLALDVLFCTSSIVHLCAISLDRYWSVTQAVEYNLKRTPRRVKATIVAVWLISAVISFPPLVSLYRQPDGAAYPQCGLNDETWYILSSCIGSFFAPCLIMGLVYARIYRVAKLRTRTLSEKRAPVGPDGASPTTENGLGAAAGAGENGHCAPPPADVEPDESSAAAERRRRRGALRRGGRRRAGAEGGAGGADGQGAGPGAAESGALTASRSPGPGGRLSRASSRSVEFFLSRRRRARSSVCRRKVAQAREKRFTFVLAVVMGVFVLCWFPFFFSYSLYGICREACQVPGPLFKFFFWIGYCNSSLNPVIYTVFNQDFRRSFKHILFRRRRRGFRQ

[4] = target: Cytochrome P450 3A4 (Homo sapiens, UniProt P08684); settings: bti-tn-5b1-4; note: in other assays of this panel Not Active means under 50% inhibition at 10 µM
Chain of Cytochrome P450 3A4 (P08684 whole entry): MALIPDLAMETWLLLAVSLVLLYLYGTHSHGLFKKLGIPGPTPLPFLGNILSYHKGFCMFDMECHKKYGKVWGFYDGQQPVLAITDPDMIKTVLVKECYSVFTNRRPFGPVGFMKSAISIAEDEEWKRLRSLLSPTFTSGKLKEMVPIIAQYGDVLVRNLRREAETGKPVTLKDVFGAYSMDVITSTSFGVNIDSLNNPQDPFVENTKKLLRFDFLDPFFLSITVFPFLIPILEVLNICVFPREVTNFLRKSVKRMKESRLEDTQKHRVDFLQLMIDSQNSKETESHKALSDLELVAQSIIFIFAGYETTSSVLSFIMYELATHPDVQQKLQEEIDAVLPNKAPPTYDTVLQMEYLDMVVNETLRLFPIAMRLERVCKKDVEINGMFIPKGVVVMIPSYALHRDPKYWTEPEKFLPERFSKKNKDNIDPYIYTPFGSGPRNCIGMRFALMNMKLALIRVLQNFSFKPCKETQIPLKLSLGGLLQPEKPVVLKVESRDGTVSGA

[5] = target: T4, Alpha-1D adrenergic receptor (Homo sapiens, UniProt P25100); type: cell membranes, HEK293, Membrane; settings: hek293; note: in other assays of this panel Not Active means under 50% inhibition at 10 µM
T4 sequence (P25100 whole entry): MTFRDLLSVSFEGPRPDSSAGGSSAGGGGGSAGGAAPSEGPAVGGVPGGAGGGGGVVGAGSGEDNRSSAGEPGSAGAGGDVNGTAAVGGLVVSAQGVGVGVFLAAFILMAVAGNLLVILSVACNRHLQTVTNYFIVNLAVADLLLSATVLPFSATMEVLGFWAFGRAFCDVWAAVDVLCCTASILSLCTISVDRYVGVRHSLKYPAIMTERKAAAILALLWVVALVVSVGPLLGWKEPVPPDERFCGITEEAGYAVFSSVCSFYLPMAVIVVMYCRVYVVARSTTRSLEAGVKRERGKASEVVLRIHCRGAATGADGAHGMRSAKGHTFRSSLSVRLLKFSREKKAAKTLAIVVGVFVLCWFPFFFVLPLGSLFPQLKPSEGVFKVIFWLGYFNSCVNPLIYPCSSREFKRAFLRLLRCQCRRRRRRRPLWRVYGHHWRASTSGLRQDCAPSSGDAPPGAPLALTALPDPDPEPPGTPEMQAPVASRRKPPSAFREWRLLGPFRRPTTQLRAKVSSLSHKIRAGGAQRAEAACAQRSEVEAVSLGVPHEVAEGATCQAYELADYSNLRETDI

[6] = target: Estrogen receptor beta (Homo sapiens, UniProt Q92731); settings: sf9; note: in other assays of this panel Not Active means under 50% inhibition at 10 µM
Chain of Estrogen receptor beta (Q92731 whole entry): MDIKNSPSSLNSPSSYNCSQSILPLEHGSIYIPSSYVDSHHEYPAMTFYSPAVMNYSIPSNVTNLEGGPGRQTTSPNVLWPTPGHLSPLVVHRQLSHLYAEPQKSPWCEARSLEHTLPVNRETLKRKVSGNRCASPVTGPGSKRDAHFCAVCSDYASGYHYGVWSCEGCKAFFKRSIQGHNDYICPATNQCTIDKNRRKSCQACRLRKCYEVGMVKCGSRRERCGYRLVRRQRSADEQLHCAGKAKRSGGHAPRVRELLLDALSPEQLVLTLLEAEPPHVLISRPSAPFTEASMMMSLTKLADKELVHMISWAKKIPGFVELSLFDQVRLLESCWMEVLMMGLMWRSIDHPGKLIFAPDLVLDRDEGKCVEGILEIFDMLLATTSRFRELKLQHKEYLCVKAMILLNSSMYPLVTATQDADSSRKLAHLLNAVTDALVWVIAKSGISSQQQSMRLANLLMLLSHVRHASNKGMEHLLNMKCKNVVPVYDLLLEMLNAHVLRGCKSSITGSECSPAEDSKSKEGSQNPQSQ

Row | SMILES | IC50 [1] | IC50 ([2]; cho-k1) | IC50 [3] | IC50 [4] | Ki [4] | IC50 [5] | IC50 [6] | IC50 ([2]; read-out: IC50) [µM] | Ki ([2]; read-out: Ki) [µM]
1 | CCCN(CCC)C(=O)C(CCC(=O)O)NC(=O)c1ccccc1 (stereo unspecified) [PROGLUMIDE] | Not Active | Not Active | Not Active | Not Active | Not Active | Not Active | – | – | –
2 | O=C(N[C@H](CO)[C@H](O)c1ccc([N+](=O)[O-])cc1)C(Cl)Cl [CHLORAMPHENICOL] | Not Active | Not Active | Not Active | – | – | Not Active | Not Active | – | –
3 | CC(C)(C(=O)c1cccnc1)c1cccnc1 [METYRAPONE] | Not Active | Not Active | Not Active | – | – | Not Active | – | – | –
4 | C[C@@H]1C[C@@H]([C@H](O)CC2CC(=O)NC(=O)C2)C(=O)[C@@H](C)C1 [CYCLOHEXIMIDE] | Not Active | Not Active | Not Active | – | – | Not Active | Not Active | – | –
5 | CCn1cc(C(=O)O)c(=O)c2cc(F)c(N3CCN(C)CC3)cc21 [PEFLOXACIN] | Not Active | Not Active | Not Active | – | – | Not Active | Not Active | – | –
6 | CCN(CC)CCOC(=O)c1ccc(N)cc1 [PROCAINE] | Not Active | Not Active | Not Active | Not Active | Not Active | Not Active | – | – | –
7 | CCCC(CCC)C(=O)O [VALPROIC ACID] | Not Active | Not Active | Not Active | Not Active | Not Active | Not Active | – | – | –
8 | COc1ccc2cc([C@H](C)C(=O)O)ccc2c1 [NAPROXEN] | Not Active | Not Active | Not Active | – | – | Not Active | – | – | –
9 | C#C[C@]1(O)CC[C@H]2[C@@H]3CCc4cc(OC)ccc4[C@H]3CC[C@@]21C [MESTRANOL] | Not Active | Not Active | Not Active | Not Active | Not Active | Not Active | – | – | –
10 | CC1(C)O[C@@H]2C[C@H]3[C@@H]4C[C@H](F)C5=CC(=O)C=C[C@]5(C)[C@@]4(F)[C@@H](O)C[C@]3(C)[C@]2(C(=O)CO)O1 [FLUOCINOLONE ACETONIDE] | Not Active | Not Active | Not Active | Not Active | Not Active | Not Active | – | – | –
11 | NC(=O)NO [HYDROXYUREA] | Not Active | Not Active | Not Active | – | – | Not Active | Not Active | – | –
12 | CN1C(=O)COc2c(C(=O)NC3CN4CCC3CC4)cc(Cl)cc21 (stereo unspecified) [AZASETRON] | Not Active | Not Active | Not Active | Not Active | Not Active | Not Active | – | – | –
13 | C[C@H]1C[C@H]2[C@@H]3CCC4=CC(=O)C=C[C@]4(C)[C@@]3(Cl)[C@@H](O)C[C@]2(C)[C@@]1(O)C(=O)CO [BECLOMETHASONE] | Not Active | Not Active | Not Active | Not Active | Not Active | Not Active | – | – | –
14 | O=NN(CCCl)C(=O)NCCCl [CARMUSTINE] | Not Active | Not Active | Not Active | – | – | Not Active | Not Active | – | –
15 | O=C1CC2(CCCC2)CC(=O)N1CCCCN1CCN(c2ncccn2)CC1 [BUSPIRONE] | Not Active | Not Active | Not Active | – | – | – | – | – | –
16 | COc1ccc2c(c1)c(CC(=O)O)c(C)n2C(=O)c1ccc(Cl)cc1 [INDOMETHACIN] | Not Active | Not Active | Not Active | Not Active | Not Active | Not Active | – | – | –
17 | COC(=O)C1=C(C)NC(C)=C(C(=O)OCC(C)C)C1c1ccccc1[N+](=O)[O-] (stereo unspecified) [NISOLDIPINE] | Not Active | Not Active | Not Active | – | – | Not Active | – | – | –
18 | C[C@]12CC[C@@H]3c4ccc(O)cc4CC[C@H]3[C@@H]1CC[C@@H]2O [ESTRADIOL] | Not Active | Not Active | Not Active | Not Active | Not Active | Not Active | – | – | –
19 | Cc1ccc(S(=O)(=O)NC(=O)NN2CC3CCCC3C2)cc1 (stereo unspecified) [GLICLAZIDE] | Not Active | Not Active | Not Active | Not Active | Not Active | Not Active | – | – | –
20 | Cc1cc2cc3c(C)cc(=O)oc3c(C)c2o1 [TRIOXSALEN] | Not Active | – | Not Active | Not Active | Not Active | Not Active | – | 2.36 | 1.23
21 | Cc1ncc([N+](=O)[O-])n1CCO [METRONIDAZOLE] | Not Active | Not Active | Not Active | Not Active | Not Active | Not Active | – | – | –
22 | OC(CCN1CCCCC1)(c1ccccc1)C1CCCCC1 (stereo unspecified) [TRIHEXYPHENIDYL] | – | Not Active | Not Active | Not Active | Not Active | Not Active | Not Active | – | –
23 | O=C(C1CCCCC1)N1CC(=O)N2CCc3ccccc3C2C1 (stereo unspecified) [PRAZIQUANTEL] | Not Active | Not Active | Not Active | Not Active | Not Active | Not Active | – | – | –
24 | C[C@@]12C(=O)OC(=O)[C@]1(C)[C@H]1CC[C@@H]2O1 [CANTHARIDIN] | Not Active | Not Active | Not Active | Not Active | Not Active | Not Active | – | – | –
25 | C[N+](C)(C)CCO.[Cl-] [CHOLINE CHLORIDE] | Not Active | Not Active | Not Active | Not Active | Not Active | Not Active | – | – | –
26 | CCC1=C[C@@H]2CN(C1)Cc1c([nH]c3ccccc13)[C@@](C(=O)OC)(c1cc3c(cc1OC)N(C)[C@H]1[C@@](O)(C(=O)OC)[C@H](OC(C)=O)[C@]4(CC)C=CCN5CC[C@]31[C@@H]54)C2 [VINORELBINE] | Not Active | Not Active | Not Active | – | – | Not Active | – | – | –
27 | CC(=O)Nc1c(I)c(NC(C)=O)c(I)c(C(=O)O)c1I [DIATRIZOIC ACID] | Not Active | Not Active | Not Active | Not Active | Not Active | Not Active | – | – | –
28 | C/C=C/C[C@@H](C)[C@@H](O)[C@H]1C(=O)N[C@@H](CC)C(=O)N(C)CC(=O)N(C)[C@@H](CC(C)C)C(=O)N[C@@H](C(C)C)C(=O)N(C)[C@@H](CC(C)C)C(=O)N[C@@H](C)C(=O)N[C@H](C)C(=O)N(C)[C@@H](CC(C)C)C(=O)N(C)[C@@H](CC(C)C)C(=O)N(C)[C@@H](C(C)C)C(=O)N1C [CYCLOSPORINE] | Not Active | Not Active | Not Active | – | – | Not Active | – | – | –

Reference: ChEMBL document CHEMBL1909046, “DrugMatrix in vitro pharmacology data”
